# Measured values: paper PMC11213733, “Computational approaches identify a transcriptomic fingerprint of drug-induced structural cardiotoxicity” (Cell Biology and Toxicology, 2024)
# Structures can show the parent of a compound that is named as a salt. Where two headings read alike, the source gives them in different places.
# Assays:
# [1] = system: cardiac microtissues; assay: Ingenuity Pathway Analysis over-representation of differentially expressed genes (activation Z-score); type: cell-based, human; details: 48hr high; Group 2
# [2] = system: cardiac microtissues; assay: ATP depletion (CellTiter Glo Luminescent Cell Viability Assay) in cardiac microtissues; type: cell-based, human; details: the concentration is the IC30 of ATP depletion, or cell death caused
# Experimental: Cellular ATP concentrations were also assessed using the CellTiter Glo® Luminescent Cell Viability Assay as per the manufacturer’s instructions (Promega).
# [3] = ref FDA label, cited from earlier work
# [4] = system: cardiac microtissues; assay: Transcriptomic profiling (mRNA-seq) and DESeq2 differential gene expression analysis in cardiac microtissues; details: absolute log2(Fold-Change) > 1, FDR p ≤ 0.05
# [5] = system: cardiac microtissues; assay: Targeted qRT-PCR of ATAD3C, CDH13, IL6, PTX3, SLC7A5, UCHL1 in cardiac microtissues; type: cell-based, human; details: Sorafenib 3.74 µM, Sunitinib 3.53 µM, Dasatinib 10.8 µM; for activity at 3.74 µM: Homo sapiens, read-out: % of control
# Experimental: The experiment was performed with three technical replicates across 1-2 independent replicates.
# [6] = system: hiPS-CMs; design: method as in Harmer et al., 2012; details: 10 µM; ref Harmer et al., 2012; cited from earlier work
smiles,measurement,setting,value
CNC(=O)c1cc(Oc2ccc(NC(=O)Nc3ccc(Cl)c(C(F)(F)F)c3)cc2)ccn1 [Sorafenib Tosylate],activation Z-score: Acute Phase Response Signaling,[1],-1.414
same,activation Z-score: Adrenomedullin signaling pathway,[1],0.447
same,activation Z-score: Aryl Hydrocarbon Receptor Signaling,[1],-1.342
same,activation Z-score: Breast Cancer Regulation by Stathmin1,[1],-2.111
same,activation Z-score: Cardiac Hypertrophy Signaling (Enhanced),[1],-1.387
same,activation Z-score: Cell Cycle: G2/M DNA Damage Checkpoint Regulation,[1],-2.236
same,activation Z-score: Colorectal Cancer Metastasis Signaling,[1],-1.633
same,activation Z-score: Cyclins and Cell Cycle Regulation,[1],1.342
same,activation Z-score: Endothelin-1 Signaling,[1],-2
same,activation Z-score: G-Protein Coupled Receptor Signaling,[1],-1.897
same,activation Z-score: HIF1Î± Signaling,[1],-0.447
same,activation Z-score: HMGB1 Signaling,[1],-1.897
same,activation Z-score: Hepatic Fibrosis Signaling Pathway,[1],-2.111
same,activation Z-score: IL-6 Signaling,[1],-1.667
same,activation Z-score: IL-8 Signaling,[1],-2
same,activation Z-score: ILK Signaling,[1],-1
same,activation Z-score: Immunogenic Cell Death Signaling Pathway,[1],-1
same,activation Z-score: Kinetochore Metaphase Signaling Pathway,[1],1.886
same,activation Z-score: LXR/RXR Activation,[1],2.333
same,activation Z-score: Leukocyte Extravasation Signaling,[1],-2
same,activation Z-score: MIF Regulation of Innate Immunity,[1],-2
same,activation Z-score: Macrophage Alternative Activation Signaling Pathway,[1],2.236
same,activation Z-score: Osteoarthritis Pathway,[1],-2.714
same,activation Z-score: Oxytocin Signaling Pathway,[1],-2.236
same,activation Z-score: PPAR Signaling,[1],2.236
same,activation Z-score: Pulmonary Fibrosis Idiopathic Signaling Pathway,[1],-1.897
same,activation Z-score: Pulmonary Healing Signaling Pathway,[1],-0.447
same,activation Z-score: Pyridoxal 5'-phosphate Salvage Pathway,[1],2.236
same,activation Z-score: Regulation Of The Epithelial Mesenchymal Transition By Growth Factors Pathway,[1],-1.89
same,activation Z-score: Ribonucleotide Reductase Signaling Pathway,[1],-0.816
same,activation Z-score: Role of IL-17F in Allergic Inflammatory Airway Diseases,[1],-2
same,activation Z-score: Role of JAK family kinases in IL-6-type Cytokine Signaling,[1],-1.414
same,activation Z-score: Salvage Pathways of Pyrimidine Ribonucleotides,[1],2.236
same,activation Z-score: Senescence Pathway,[1],-1.89
same,activation Z-score: Signaling by Rho Family GTPases,[1],-0.447
same,activation Z-score: TREM1 Signaling,[1],-2
same,activation Z-score: White Adipose Tissue Browning Pathway,[1],0
same,activation Z-score: Wound Healing Signaling Pathway,[1],-2.714
same,Transcriptomic high concentration (µM) = IC30 of ATP depletion,[2],3.74 µM
same,Structural cardiotoxin?,[3]; FDA label references heart failure or a decrease in left ventricular ejection fraction,Y
same,Functional cardiotoxin?,[3]; compound annotation,Y
same,"number of significant differentially expressed genes, 6hr high","[4]; 6 hr, high concentration",13
same,"number of significant differentially expressed genes, 6hr low","[4]; 6 hr, low concentration",7
same,"number of significant differentially expressed genes, 48hr high","[4]; 48 hr, high concentration",268
same,"number of significant differentially expressed genes, 48hr low","[4]; 48 hr, low concentration",150
same,"number of significant differentially expressed genes, 72hr high","[4]; 72 hr, high concentration",204
same,"number of significant differentially expressed genes, 72hr low","[4]; 72 hr, low concentration",143
same,activity at 3.74 µM,"[5]; gene ATAD3C, Run 1",85.7%
same,activity at 3.74 µM,"[5]; gene CDH13, Run 1",74%
same,activity at 3.74 µM,"[5]; gene CDH13, Run 2",113%
same,activity at 3.74 µM,"[5]; gene IL6, Run 1",35.3%
same,activity at 3.74 µM,"[5]; gene IL6, Run 2",6.7%
same,activity at 3.74 µM,"[5]; gene PTX3, Run 1",73.7%
same,activity at 3.74 µM,"[5]; gene PTX3, Run 2",74%
same,activity at 3.74 µM,"[5]; gene SLC7A5, Run 1",57%
same,activity at 3.74 µM,"[5]; gene SLC7A5, Run 2",50.2%
same,activity at 3.74 µM,"[5]; gene UCHL1, Run 1",66.2%
same,activity at 3.74 µM,"[5]; gene UCHL1, Run 2",70.9%
same,"2^-ΔΔCt of Individual reps, Treated 1","[5]; gene ATAD3C, Run 1",0.8342
same,"2^-ΔΔCt of Individual reps, Treated 2","[5]; gene ATAD3C, Run 1",0.8632
same,"2^-ΔΔCt of Individual reps, Treated 3","[5]; gene ATAD3C, Run 1",0.8757
same,"Average 2^-ΔΔCt, Treated","[5]; gene ATAD3C, Run 1",0.8577
same,"2^-ΔΔCt of Individual reps, Treated 1","[5]; gene CDH13, Run 1",0.6992
same,"2^-ΔΔCt of Individual reps, Treated 2","[5]; gene CDH13, Run 1",0.7927
same,"2^-ΔΔCt of Individual reps, Treated 3","[5]; gene CDH13, Run 1",0.7507
same,"Average 2^-ΔΔCt, Treated","[5]; gene CDH13, Run 1",0.7476
same,"2^-ΔΔCt of Individual reps, Treated 1","[5]; gene CDH13, Run 2",1.515
same,"2^-ΔΔCt of Individual reps, Treated 2","[5]; gene CDH13, Run 2",1.105
same,"2^-ΔΔCt of Individual reps, Treated 3","[5]; gene CDH13, Run 2",0.7867
same,"Average 2^-ΔΔCt, Treated","[5]; gene CDH13, Run 2",1.136
same,"2^-ΔΔCt of Individual reps, Treated 1","[5]; gene IL6, Run 1",0.3353
same,"2^-ΔΔCt of Individual reps, Treated 2","[5]; gene IL6, Run 1",0.4238
same,"2^-ΔΔCt of Individual reps, Treated 3","[5]; gene IL6, Run 1",0.3063
same,"Average 2^-ΔΔCt, Treated","[5]; gene IL6, Run 1",0.3551
same,"2^-ΔΔCt of Individual reps, Treated 1","[5]; gene IL6, Run 2",0.169
same,"2^-ΔΔCt of Individual reps, Treated 2","[5]; gene IL6, Run 2",0.0204
same,"2^-ΔΔCt of Individual reps, Treated 3","[5]; gene IL6, Run 2",0.0311
same,"Average 2^-ΔΔCt, Treated","[5]; gene IL6, Run 2",0.07349
same,"2^-ΔΔCt of Individual reps, Treated 1","[5]; gene PTX3, Run 1",0.6982
same,"2^-ΔΔCt of Individual reps, Treated 2","[5]; gene PTX3, Run 1",0.8787
same,"2^-ΔΔCt of Individual reps, Treated 3","[5]; gene PTX3, Run 1",0.6669
same,"Average 2^-ΔΔCt, Treated","[5]; gene PTX3, Run 1",0.7479
same,"2^-ΔΔCt of Individual reps, Treated 1","[5]; gene PTX3, Run 2",0.9568
same,"2^-ΔΔCt of Individual reps, Treated 2","[5]; gene PTX3, Run 2",0.4098
same,"2^-ΔΔCt of Individual reps, Treated 3","[5]; gene PTX3, Run 2",0.8963
same,"Average 2^-ΔΔCt, Treated","[5]; gene PTX3, Run 2",0.7543
same,"2^-ΔΔCt of Individual reps, Treated 1","[5]; gene SLC7A5, Run 1",0.5608
same,"2^-ΔΔCt of Individual reps, Treated 2","[5]; gene SLC7A5, Run 1",0.6339
same,"2^-ΔΔCt of Individual reps, Treated 3","[5]; gene SLC7A5, Run 1",0.5348
same,"Average 2^-ΔΔCt, Treated","[5]; gene SLC7A5, Run 1",0.5765
same,"2^-ΔΔCt of Individual reps, Treated 1","[5]; gene SLC7A5, Run 2",0.6489
same,"2^-ΔΔCt of Individual reps, Treated 2","[5]; gene SLC7A5, Run 2",0.4574
same,"2^-ΔΔCt of Individual reps, Treated 3","[5]; gene SLC7A5, Run 2",0.4262
same,"Average 2^-ΔΔCt, Treated","[5]; gene SLC7A5, Run 2",0.5108
same,"2^-ΔΔCt of Individual reps, Treated 1","[5]; gene UCHL1, Run 1",0.6452
same,"2^-ΔΔCt of Individual reps, Treated 2","[5]; gene UCHL1, Run 1",0.6787
same,"2^-ΔΔCt of Individual reps, Treated 3","[5]; gene UCHL1, Run 1",0.6738
same,"Average 2^-ΔΔCt, Treated","[5]; gene UCHL1, Run 1",0.6659
same,"2^-ΔΔCt of Individual reps, Treated 1","[5]; gene UCHL1, Run 2",0.8432
same,"2^-ΔΔCt of Individual reps, Treated 2","[5]; gene UCHL1, Run 2",0.6978
same,"2^-ΔΔCt of Individual reps, Treated 3","[5]; gene UCHL1, Run 2",0.5876
same,"Average 2^-ΔΔCt, Treated","[5]; gene UCHL1, Run 2",0.7095
COc1ccc(CCN(C)CCCC(C#N)(c2ccc(OC)c(OC)c2)C(C)C)cc1OC (stereo not shown) [verapamil],inhibition of calcium transient signal in cardiomyocytes,[6],inhibit almost all of the calcium transient signal
